Test [1] deals with LAD-2 cells. Briefly: LAD2 Degranulation Assay (Protocol 2), β-hexosaminidase release. It is filed as cell-based. As to conditions: Homo sapiens, single point 250 nM, 0.5 μM Cortistatin-14, % control β-hexosaminidase activity. Here is the method:
LAD-2 cells were maintained at 37° C. with 5% CO2 and grown in complete StemPro-34 media supplemented with 1% L-Glutamate, 1% penicillin/streptomycin, and 250 ng/mL human SCF.
18-24 hours prior to experiment, LAD-2 cells were collected and transferred to growth media without SCF. On the day of experiment, cells were collected by centrifugation and seeded in 384-well assay plates, at 4,000 cells per well in 17 μl freshly made assay buffer (10 mM HEPES, 137 mM NaCl, 2.7 mM KCl, 1.8 mM CaCl2), 1.0 mM MgCl2, 5.6 mM glucose, 0.4 mM NaH2PO4, 0.04% BSA, pH=7.40). For dose-response assays, compounds solubilized in 100% DMSO at 30 mM were serially diluted (1:3) first in 100% DMSO, and 2 intermediate dilutions with assay buffer were used to establish a final top concentration of 3 μM (in assay plate). For single point assays, dilution of DMSO stocks to 250 nM (in assay plate) was performed in the same manner as described for dose-response assays. Final DMSO concentration was kept constant at 0.1% across plates for all assays. Cortistatin-14 at 30 mM stock concentration was solubilized in HBSS+0.1% BSA, stored at −20° C. in 5 μl aliquots and discarded after one freeze-thaw cycle. Final concentration of agonist used in both dose-response and single point assays was 0.5 μM, prepared in assay buffer.
Antagonist equilibrium was established with 2 h preincubation, followed by no wash, direct addition, and stimulation of agonist for 30 minutes at 37° C. For detection of β-hexosaminidase activity, assay plates were centrifuged and 5 μl of cell-free supernatant from each assay well was transferred to a black-walled black-bottomed 384-well plate. Substrate solution (1 mM 4-Methylumbelliferyl N-acetyl-β-D-glucosaminide in citrate buffer, pH=4.5, […]) was added to each well and plates were incubated for 1 hour at 37° C. The plate was read on an EnVision XCite plate reader for umbelliferone fluorescence intensity (λex=355 nm, λem=460 nm). Background-subtracted data was analyzed using either GraphPad Prism or a custom Python script to calculate IC50 using either Log[Antagonist] vs. response (4 parameter) nonlinear regression (dose-response assays) or % control β-hexosaminidase activity (single point assays).

Test [2] deals with T1, human MRGPRX2 (Homo sapiens, UniProt Q96LB1).
T1 construct: expressed in transfected cells; host or cells: FlpIn TRex HEK293 (TRex-MRGPRX2-HEK), doxycycline-induced
T1 sequence (Q96LB1 1-330): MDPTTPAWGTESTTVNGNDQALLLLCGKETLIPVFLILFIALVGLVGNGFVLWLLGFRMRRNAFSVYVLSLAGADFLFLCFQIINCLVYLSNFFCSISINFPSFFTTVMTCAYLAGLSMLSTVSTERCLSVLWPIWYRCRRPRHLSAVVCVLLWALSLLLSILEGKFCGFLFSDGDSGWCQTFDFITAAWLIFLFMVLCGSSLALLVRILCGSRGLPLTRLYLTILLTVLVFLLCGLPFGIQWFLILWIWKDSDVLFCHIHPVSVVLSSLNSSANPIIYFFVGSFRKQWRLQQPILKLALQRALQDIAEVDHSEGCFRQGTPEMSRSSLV
Briefly: MRGPRX2 Activity Assay (IP-1 HTRF, antagonist mode). It is filed as cell-based. The conditions noted are these: FlpIn TRex-MRGPRX2-HEK293 cells; versus 1 μM Cortistatin-14 agonist; 30 minutes preincubation. The method in brief:
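Doxycycline-induced (100 ng/mL, 18-24 h) TRex HEK293 cells stably expressing human MRGPRX2, in HBSS/20 mM HEPES/0.1% BSA/10 mM LiCl. Compounds (top final 30 uM, 1% DMSO) preincubated 30 min, then agonist stimulation 1 h at 37° C without wash. IP-1 accumulation read by HTRF; IC50 from 4-parameter fit.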
(In general: TR-FRET usually uses a lanthanide donor and a delayed reading to cut background.)

pIC50: −log10 of the molar value.

As for `C[C@@H](C(=O)Nc1cn2c(n1)CC[C@@H]2c1cc(F)cc(F)c1)N1CCC(F)(F)[C@@H](c2c[nH]c(=O)c([C@H](N)C(F)F)c2)C1` (single isomer, unassigned) [Compound 536], the activity at 0.25 µM in test [1] was determined as 89%.
The same measure, in the same setting: under `C[C@@H](C(=O)Nc1cn2c(n1)CC[C@@H]2c1cc(F)cc(F)c1)N1CCC(F)(F)[C@H](c2c[nH]c(=O)c([C@@H](N)C(F)F)c2)C1` (single isomer, unassigned) [Compound 539] stands 12%; under `C[C@@H](C(=O)Nc1cn2c(n1)CC[C@@H]2c1cc(F)cc(F)c1)N1CCC(F)(F)[C@H](c2c[nH]c(=O)c([C@H](N)C(F)F)c2)C1` (single isomer, unassigned) [Compound 537], 10%; under `C[C@@H](C(=O)Nc1cn2c(n1)CC[C@@H]2c1cc(F)cc(F)c1)N1CCC(F)(F)C(c2c[nH]c(=O)c(CO)n2)C1` (stereo partly drawn) [Compound 544, (2S)-2-(4,4-difluoro-3-(6-(hydroxymethyl)-5-oxo-4,5-dihydropyrazin-2-yl)piperidin-1-yl)-N—((R)-5-(3,5-difluorophenyl)-6,7-dihydro-5H-pyrrolo[1,2-a]imidazol-2-yl)propanamide], 81%.
Turning to `C[C@@H](C(=O)Nc1cn2c(n1)CC[C@@H]2c1cc(F)ccc1F)N1CCC(F)(F)[C@@H](c2ccc(=O)[nH]c2)C1` (single isomer, unassigned) [Compound 503], the activity at 0.25 µM in test [1] was 105%.
On to `C[C@@H](C(=O)Nc1cn2c(n1)CC[C@@H]2c1cc(F)cc(F)c1)N1CCC(F)(F)[C@@H](c2c[nH]c(=O)c([C@@H](N)C(F)F)c2)C1` (single isomer, unassigned) [Compound 538], for which the activity at 0.25 µM in test [1] was 81%.
Regarding `C[C@@H](C(=O)Nc1cn2c(n1)CC[C@@H]2c1cc(F)cc(F)c1)N1CCC(F)(F)[C@@H](c2c[nH]c(=O)c(CN3CCC(F)(F)CC3)c2)C1` (single isomer, unassigned) [Compound 542], the activity at 0.25 µM in test [1] was found to be 126%.
Still for that read-out and setting: the value for `C[C@@H](C(=O)Nc1cn2c(n1)CC[C@@H]2c1cc(F)cc(F)c1)N1CCC(F)(F)[C@H](c2c[nH]c(=O)c(CN3CCC(F)(F)CC3)c2)C1` (single isomer, unassigned) [Compound 543] was 59%.
Still for that read-out and setting: under `C[C@@H](C(=O)Nc1cn2c(n1)CC[C@@H]2c1cc(F)cc(F)c1)N1CCC(F)(F)CC1` (single isomer, unassigned) [Compound 509] stands 11%.
Broadly, the pIC50 is the negative decadic logarithm of the IC50, by convention in mol/L. Lower therefore signals a high IC50. Regarding `C[C@@H](C(=O)Nc1cc2n(n1)CC[C@H]2c1cc(F)cc(F)c1)N1CCC(F)(F)[C@@H](c2cc[n+]([O-])cc2)C1` (single isomer, unassigned) [Compound 550], the pIC50 in test [2] was 8.22.
The same measure, in the same setting: the value for `C[C@@H](C(=O)Nc1cn2c(n1)[C@@H](O)C[C@@H]2c1cc(F)cc(F)c1)N1CCC(F)(F)[C@@H](c2ccc(=O)[nH]c2)C1` (single isomer, unassigned) [Compound 516] was < 4.52; that for `C[C@H](C(=O)Nc1cn(Cc2cc(F)cc(F)c2)c(CF)n1)N1CCC(F)(F)[C@@H](c2cc[n+]([O-])cc2)C1` (single isomer, unassigned) [Compound 61] was 6.32; that for `C[C@@H](C(=O)Nc1cn2c(n1)CC[C@@H]2c1cc(F)cc(F)c1)N1CCC(F)(F)[C@H](c2cc[n+]([O-])c(CN3CCC(F)(F)CC3)c2)C1` (single isomer, unassigned) [Compound 535] was 7.51.
Take `CNCc1cc(C2CN([C@@H](C)C(=O)Nc3cn4c(n3)CC[C@@H]4c3cc(F)cc(F)c3)CCC2(F)F)c[nH]c1=O` (stereo partly drawn) [Compound 529, (2S)-2-(4,4-difluoro-3-(5-((methylamino)methyl)-6-oxo-1,6-dihydropyridin-3-yl)piperidin-1-yl)-N—((R)-5-(3,5-difluorophenyl)-6,7-dihydro-5H-pyrrolo[1,2-a]imidazol-2-yl)propanamide]: the negative logarithm of the IC50 (pIC50) in test [2] was 7.10.
With `C[C@@H](C(=O)Nc1cn2c(n1)CC[C@@H]2c1cc(F)cc(F)c1)N1CCC(F)(F)[C@@H](c2c[nH]c(=O)cn2)C1` (single isomer, unassigned) [Compound 527], in test [2], the pIC50 was 6.99.
As for `C[C@@H](C(=O)Nc1cn2c(n1)CC[C@@H]2c1cc(F)cc(F)c1)N1CCC(F)(F)[C@H](c2ccc(=O)n(C)c2)C1` (single isomer, unassigned) [Compound 533], the pIC50 in test [2] was 7.74.
Still for that read-out and setting: under `C[C@H](c1cc(F)cc(F)c1)n1cnc(NC(=O)[C@H](C)N2CCC(F)(F)[C@@H](c3cc[n+]([O-])cc3)C2)c1` (single isomer, unassigned) [Compound 14] stands 6.33; under `C[C@@H](C(=O)Nc1cn(Cc2cccc(Cl)c2Cl)cn1)N1CCC(F)(F)[C@@H](c2cc[n+]([O-])cc2)C1` [Compound 66, 4-((S)-1-((S)-1-((1-(2,3-dichlorobenzyl)-1H-imidazol-4-yl)amino)-1-oxopropan-2-yl)-4,4-difluoropiperidin-3-yl)pyridine 1-oxide], 7.15.
For `C[C@@H](C(=O)Nc1cn2c(n1)CC[C@H]2c1cc(F)cc(F)c1)N1CCC(F)(F)[C@H](c2ccc(=O)[nH]c2)C1` (single isomer, unassigned) [Compound 496], in test [2], the pIC50 was 5.46.
In test [2], `C[C@@H](C(=O)Nc1cn(Cc2cccc(F)c2F)cn1)N1CCC(F)(F)[C@@H](c2cc[n+]([O-])cc2)C1` [Compound 49, 4-((S)-1-((S)-1-((1-(2,3-difluorobenzyl)-1H-imidazol-4-yl)amino)-1-oxopropan-2-yl)-4,4-difluoropiperidin-3-yl)pyridine 1-oxide] had a pIC50 of 7.28.
Consider `C[C@@H](C(=O)Nc1cn(Cc2ccc(F)cc2F)cn1)N1CCC(F)(F)[C@H](c2cc[n+]([O-])cc2)C1` (single isomer, unassigned) [Compound 3], for which, in test [2], the pIC50 is < 5.00.
In test [2], `C[C@@H](C(=O)Nc1cn(Cc2ccccc2C(F)(F)F)cn1)N1CCC(F)(F)[C@@H](c2cc[n+]([O-])cc2)C1` [Compound 41, 4-((S)-4,4-difluoro-1-((S)-1-oxo-1-((1-(2-(trifluoromethyl)benzyl)-1H-imidazol-4-yl)amino)propan-2-yl)piperidin-3-yl)pyridine 1-oxide] gave a pIC50 of 6.57.
`C[C@@H](C(=O)Nc1cn(Cc2cc(F)cc(F)c2)cn1)N1CCC(F)(F)[C@@H](c2ccc(=O)[nH]c2)C1` (single isomer, unassigned) [Compound 54]: the pIC50 in test [2] is 6.36.
As to `Cc1nc(NC(=O)[C@@H](C)N2CCOCC2)cn1Cc1cc(F)cc(F)c1` (single isomer, unassigned) [Compound 24], in test [2], the pIC50 was 5.41.
Regarding `Cc1nc(NC(=O)[C@@H](C)N2CCC(F)(F)[C@@H](c3cc[n+]([O-])cc3)C2)cn1Cc1cc(F)cc(C#N)c1` (single isomer, unassigned) [Compound 18], the pIC50 in test [2] was < 5.00.
On to `C[C@@H](C(=O)Nc1cn([C@@H](C)c2cc(F)cc(F)c2)cn1)N1CCC(F)(F)[C@@H](c2cc[n+]([O-])cc2)C1` (single isomer, unassigned) [Compound 15], for which the pIC50 in test [2] was < 5.00.
Molecule `C[C@@H](C(=O)Nc1cn(Cc2ccc(F)cc2Cl)cn1)N1CCC(F)(F)[C@@H](c2cc[n+]([O-])cc2)C1` [Compound 48, 4-((S)-1-((S)-1-((1-(2-chloro-4-fluorobenzyl)-1H-imidazol-4-yl)amino)-1-oxopropan-2-yl)-4,4-difluoropiperidin-3-yl)pyridine 1-oxide] showed a pIC50 in test [2] of 6.67.
